Results taken from ChEMBL document CHEMBL5113526, “Design, Synthesis, and Biological Evaluation of Androgen Receptor Degrading and Antagonizing Bifunctional Steroidal Analogs for the Treatment of Advanced Prostate Cancer” (J Med Chem, 2022).
Calls of active or inactive are those of the source. The calls are words filed in the database; no cut-off is given here.

Columns and labels:
LNCaP [1] = assay: Antiproliferative activity against human LNCAP cells assessed as reduction in cell viability at 10 uM measured after 6 days by CellTiterGlo assay relative to control; assay type: functional; details: time 6 day; for inhibition at 10 µM: Homo sapiens, LNCaP
Androgen receptor [2] = target: T1, Androgen receptor (Homo sapiens, UniProt P10275); assay: Antagonist activity at DHT-induced Androgen receptor transcriptional activity in human HEK293 cells measured after 24 hrs by Steady-Glo reagent based assay; assay type: cell-based
T1 sequence (P10275 whole entry): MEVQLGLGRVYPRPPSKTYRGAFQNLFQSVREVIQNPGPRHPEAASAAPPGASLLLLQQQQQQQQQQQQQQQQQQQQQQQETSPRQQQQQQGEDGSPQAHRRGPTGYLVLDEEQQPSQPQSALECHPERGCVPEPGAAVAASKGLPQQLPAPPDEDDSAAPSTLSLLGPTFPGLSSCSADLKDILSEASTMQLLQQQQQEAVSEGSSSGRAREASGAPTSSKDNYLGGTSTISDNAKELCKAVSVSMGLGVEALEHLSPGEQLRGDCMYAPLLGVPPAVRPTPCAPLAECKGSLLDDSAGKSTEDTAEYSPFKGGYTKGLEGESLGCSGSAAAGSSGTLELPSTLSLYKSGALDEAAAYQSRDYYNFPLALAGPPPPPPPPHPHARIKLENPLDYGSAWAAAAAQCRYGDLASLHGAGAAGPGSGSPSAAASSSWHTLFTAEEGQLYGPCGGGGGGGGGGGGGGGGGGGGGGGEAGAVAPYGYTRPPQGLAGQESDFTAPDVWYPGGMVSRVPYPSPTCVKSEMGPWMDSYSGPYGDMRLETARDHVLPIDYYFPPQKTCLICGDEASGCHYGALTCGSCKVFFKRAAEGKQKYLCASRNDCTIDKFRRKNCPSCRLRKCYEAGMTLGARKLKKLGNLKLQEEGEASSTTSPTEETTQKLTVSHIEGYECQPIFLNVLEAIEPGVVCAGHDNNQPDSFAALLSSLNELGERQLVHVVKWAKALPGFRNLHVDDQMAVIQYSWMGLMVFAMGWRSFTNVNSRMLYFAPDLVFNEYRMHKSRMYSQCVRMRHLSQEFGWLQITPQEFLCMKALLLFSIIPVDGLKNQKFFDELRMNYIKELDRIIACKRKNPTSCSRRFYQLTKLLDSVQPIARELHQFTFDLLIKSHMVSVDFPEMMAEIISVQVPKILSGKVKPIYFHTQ

[3] = Terminal half life in Sprague-Dawley rat at 10 mg/kg, po measured up to 24 hrs by LC-MS/MS analysis; assay type: ADME, organism-based; details: in vivo, read-out: beta t1/2 (converted)
[4] = Tmax in Sprague-Dawley rat at 10 mg/kg, po measured up to 24 hrs by LC-MS/MS analysis; assay type: ADME, organism-based; details: in vivo
[5] = Cmax in Sprague-Dawley rat at 10 mg/kg, po measured up to 24 hrs by LC-MS/MS analysis; assay type: ADME, organism-based; set-up: dose 10 mg/kg, time < 24 hrs, route po; details: in vivo
[6] = AUC (0 to t) in Sprague-Dawley rat at 10 mg/kg, po measured up to 24 hrs by LC-MS/MS analysis; assay type: ADME, organism-based; set-up: time < 24 hrs, dose 10 mg/kg, route po; details: in vivo
[7] = target: Voltage-gated inwardly rectifying potassium channel KCNH2 (Homo sapiens, UniProt Q12809); assay: Inhibition of hERG potassium channel at -80 mV holding potential incubated for 3 mins by automated patch clamp method; assay type: toxicity
LNCaP [8] = assay: cells; details: Homo sapiens
Description: Antiproliferative activity against human LNCAP cells assessed as reduction in cell viability measured after 6 days by CellTiter-Glo assay

[9] = Inhibition of TP-stimulated andogen-sensitive seminal vesicle growth in castrated Sprague-Dawley rat at 20 mg/kg, po administered for 10 days and measured after 24 hrs last post dose by hershberger assay relative to control; assay type: functional
[10] = Inhibition of TP-stimulated andogen-sensitive ventral prostate growth in castrated Sprague-Dawley rat at 20 mg/kg, po administered for 10 days and measured after 24 hrs last post dose by hershberger assay relative to control; assay type: functional; details: time 10 day
[11] = target: T2, Steroid 17-alpha-hydroxylase/17,20 lyase (Homo sapiens, UniProt P05093); assay: Inhibition of human recombinant CYP17A1 incubated for 5 mins in presence of NADPH by LC-MS/MS analysis; assay type: ADME
T2 sequence (P05093 whole entry): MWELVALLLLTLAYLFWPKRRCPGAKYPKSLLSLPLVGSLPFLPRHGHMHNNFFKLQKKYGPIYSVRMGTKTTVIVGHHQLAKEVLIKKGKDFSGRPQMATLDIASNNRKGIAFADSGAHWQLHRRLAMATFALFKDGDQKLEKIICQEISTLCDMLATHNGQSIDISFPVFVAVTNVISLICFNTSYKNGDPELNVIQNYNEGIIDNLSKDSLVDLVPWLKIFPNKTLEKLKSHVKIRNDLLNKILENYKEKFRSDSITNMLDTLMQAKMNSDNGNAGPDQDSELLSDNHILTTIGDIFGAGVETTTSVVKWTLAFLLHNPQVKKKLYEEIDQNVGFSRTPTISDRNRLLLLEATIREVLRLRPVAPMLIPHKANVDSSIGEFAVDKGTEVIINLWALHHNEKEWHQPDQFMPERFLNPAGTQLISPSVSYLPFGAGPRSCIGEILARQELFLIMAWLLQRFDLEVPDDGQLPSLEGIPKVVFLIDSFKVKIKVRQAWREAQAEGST

Androgen receptor [12] = target: T1, Androgen receptor; assay: Induction of AR degradation in human LNCap cells incubated for 24 hrs by sandwich ELISA analysis; assay type: cell-based
[13] = target: T3, Androgen receptor (Homo sapiens) (UniProt P10275); assay: Induction of AR degradation in human LNCap cells at 20 uM measured after 24 hrs by Western blot analysis; assay type: cell-based
T3 sequence (whole entry): T1 sequence (P10275 whole entry)

[14] = target: T3, Androgen receptor (Homo sapiens); assay: Induction of AR degradation in human LNCap cells at 20 uM by Western blot analysis; assay type: cell-based; details: time 2-24 hrs, TDE = time-dependent effect
CWR22R [15] = assay: Antiproliferative activity against human 22Rv1 cells expressing AR-v7 assessed as reduction in cell viability measured after 6 days by CTG assay; assay type: functional, cell-based
CWR22R [16] = assay: Antiproliferative activity against human 22Rv1 cells expressing AR-v7 assessed as reduction in cell viability at 30 uM measured after 6 days by CTG assay; assay type: functional; details: time 6 day
[17] = test system: Androgen receptor (Homo sapiens), P10275 [UNDEFINED MUTATION]; assay: Induction of AR-v7 degradation in human 22Rv1 cells incubated for 24 hrs by Western blot analysis; assay type: cell-based; details: dose 1-20 µM, DDE = dose-dependent effect
[18] = Antagonist activity at androgen receptor W741L mutant (unknown origin) expressed in HEK293 cells incubated for 24 hrs by luciferase reporter assay; assay type: cell-based; details: Homo sapiens, HEK293, 24 h
Androgen receptor [19] = target: Androgen receptor (Homo sapiens, UniProt P10275, T878A); assay: Antagonist activity at androgen receptor T877A mutant (unknown origin) expressed in HEK293 cells incubated for 24 hrs by luciferase reporter assay; assay type: cell-based
Androgen receptor [20] = target: Androgen receptor (Homo sapiens, UniProt P10275, F877L); assay: Antagonist activity at androgen receptor F876L mutant (unknown origin) expressed in HEK293 cells incubated for 24 hrs by luciferase reporter assay; assay type: cell-based
LNCaP C4-2B = assay: Antitumor activity against enzalutamide-resisitant human C4-2B cells xenografted in castrated BALB/c nude mouse assessed as change in tumor volume at 30 mg/kg, po qd measured after 4 weeks; assay type: functional
[21] = Toxicity in castrated BALB/c nude mouse xenografted with enzalutamide-resisitant human C4-2B cells assessed as body weight loss at 30 mg/kg, po qd measured after 28 days; assay type: organism-based, LNCaP C4-2B; details: in vivo, 672 h, time 28 day

Sequence of Voltage-gated inwardly rectifying potassium channel KCNH2 (Q12809 whole entry): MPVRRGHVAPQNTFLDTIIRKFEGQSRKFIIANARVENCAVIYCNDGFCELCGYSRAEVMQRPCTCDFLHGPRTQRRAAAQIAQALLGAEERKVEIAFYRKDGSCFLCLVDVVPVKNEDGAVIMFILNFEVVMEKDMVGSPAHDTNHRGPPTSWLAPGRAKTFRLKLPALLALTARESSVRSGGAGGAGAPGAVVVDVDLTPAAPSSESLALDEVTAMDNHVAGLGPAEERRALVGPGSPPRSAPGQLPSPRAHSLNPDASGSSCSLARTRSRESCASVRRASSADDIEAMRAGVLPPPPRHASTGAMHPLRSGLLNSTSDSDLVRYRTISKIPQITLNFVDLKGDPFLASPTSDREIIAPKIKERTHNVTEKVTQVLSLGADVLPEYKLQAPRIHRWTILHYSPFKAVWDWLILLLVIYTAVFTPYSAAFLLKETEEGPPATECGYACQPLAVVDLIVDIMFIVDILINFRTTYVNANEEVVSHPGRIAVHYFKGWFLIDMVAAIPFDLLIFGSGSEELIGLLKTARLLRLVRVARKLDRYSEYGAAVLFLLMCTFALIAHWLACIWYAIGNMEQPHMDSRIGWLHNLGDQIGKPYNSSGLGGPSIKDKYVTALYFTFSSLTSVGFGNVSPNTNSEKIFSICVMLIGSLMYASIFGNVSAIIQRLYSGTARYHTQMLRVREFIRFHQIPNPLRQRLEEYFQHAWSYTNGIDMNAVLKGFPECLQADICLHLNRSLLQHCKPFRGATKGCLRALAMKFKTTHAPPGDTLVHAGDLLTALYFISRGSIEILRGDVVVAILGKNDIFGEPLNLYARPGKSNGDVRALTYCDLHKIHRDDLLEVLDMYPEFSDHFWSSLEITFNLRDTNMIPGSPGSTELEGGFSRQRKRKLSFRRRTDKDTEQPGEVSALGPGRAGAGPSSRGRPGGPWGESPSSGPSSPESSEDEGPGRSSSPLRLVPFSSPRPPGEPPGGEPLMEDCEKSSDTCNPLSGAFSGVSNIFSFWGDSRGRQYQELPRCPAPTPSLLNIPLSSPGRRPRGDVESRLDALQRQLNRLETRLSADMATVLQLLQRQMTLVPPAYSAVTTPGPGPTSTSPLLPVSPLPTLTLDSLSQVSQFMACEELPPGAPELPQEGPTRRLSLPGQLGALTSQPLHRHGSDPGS
Sequence of Androgen receptor (Homo sapiens, UniProt P10275, T878A) (P10275 whole entry T878A): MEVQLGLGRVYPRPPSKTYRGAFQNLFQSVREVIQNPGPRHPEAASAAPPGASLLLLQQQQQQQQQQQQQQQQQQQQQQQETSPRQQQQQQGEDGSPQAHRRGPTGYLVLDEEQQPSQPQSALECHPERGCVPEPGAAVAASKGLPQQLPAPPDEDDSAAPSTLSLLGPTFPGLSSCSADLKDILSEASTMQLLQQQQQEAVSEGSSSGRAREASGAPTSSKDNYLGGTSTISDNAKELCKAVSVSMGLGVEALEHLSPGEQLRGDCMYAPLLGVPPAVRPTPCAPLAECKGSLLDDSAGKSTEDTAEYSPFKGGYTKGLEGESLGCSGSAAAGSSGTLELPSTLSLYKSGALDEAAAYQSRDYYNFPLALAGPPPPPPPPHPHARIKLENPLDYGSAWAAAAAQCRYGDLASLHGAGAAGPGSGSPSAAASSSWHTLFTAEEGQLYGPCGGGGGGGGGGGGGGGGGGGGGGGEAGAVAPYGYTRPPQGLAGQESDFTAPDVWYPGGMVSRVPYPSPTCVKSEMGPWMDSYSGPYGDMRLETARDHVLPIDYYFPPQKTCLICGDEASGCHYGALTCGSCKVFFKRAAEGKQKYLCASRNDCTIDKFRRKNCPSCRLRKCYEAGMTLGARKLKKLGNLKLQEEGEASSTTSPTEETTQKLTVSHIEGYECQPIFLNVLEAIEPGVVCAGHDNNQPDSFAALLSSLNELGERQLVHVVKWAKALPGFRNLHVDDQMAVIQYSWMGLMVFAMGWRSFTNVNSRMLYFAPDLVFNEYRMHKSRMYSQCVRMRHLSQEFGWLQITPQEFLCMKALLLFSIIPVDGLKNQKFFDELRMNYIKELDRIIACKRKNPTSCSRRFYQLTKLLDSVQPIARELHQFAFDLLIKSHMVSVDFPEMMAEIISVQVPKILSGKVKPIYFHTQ
Sequence of Androgen receptor (Homo sapiens, UniProt P10275, F877L) (P10275 whole entry F877L): as the sequence (P10275 whole entry T878A) above, with F877L, A878T counted along it

C[C@]12CC[C@H](NC(=O)c3ccncc3)CC1=CC[C@@H]1[C@@H]2CC[C@]2(C)C(n3ccnc3)=CC[C@@H]12
inhibition at 10 µM (LNCaP [1]): 97% | IC50 (Androgen receptor [2]): 511 nM | half-life [3]: 10 h | Tmax [4]: 2 h | Cmax [5]: 4500 ng/mL | AUC(0-t) at 24 h [6]: 28800 ng·h/mL | IC50 [7]: 4990 nM | IC50 (LNCaP [8]): 317 nM

CNC(=O)c1ccc(N2C(=S)N(c3ccc(C#N)c(C(F)(F)F)c3)C(=O)C2(C)C)cc1F [ENZALUTAMIDE]
inhibition (INH) (LNCaP [1]): 68.83% | inhibition (INH) [9]: 67% | inhibition (INH) [10]: 67%

Cc1cn(C2=CC[C@H]3[C@@H]4CC=C5C[C@@H](NC(=O)c6ccncc6)CC[C@]5(C)[C@H]4CC[C@]23C)cn1
inhibition at 10 µM (LNCaP [1]): 99.3% | IC50 [11]: 2590 nM | IC50 (Androgen receptor [2]): 247 nM | DC50 (Androgen receptor [12]): 2840 nM | half-life [3]: 2.8 h | Tmax [4]: 2.17 h | Cmax [5]: 2670 ng/mL | AUC(0-t) at 24 h [6]: 24800 ng·h/mL | IC50 [7]: 6470 nM | Activity [13]: Active | Activity [14]: Tde | IC50 (CWR22R [15]): 590 nM | inhibition at 30 µM (CWR22R [16]): 37% | Activity [17]: Dde | IC50 [18]: 490 nM | IC50 (Androgen receptor [19]): 209 nM | IC50 (Androgen receptor [20]): 268 nM | inhibition in vivo at 20 mg/kg ([9]; Rattus norvegicus, Sprague-Dawley, 576 h): 62% | inhibition in vivo at 20 mg/kg ([10]; Rattus norvegicus, Sprague-Dawley, 240 h): 66% | T/C (LNCaP C4-2B): -14% | Activity [21]: Non-Toxic | IC50 (LNCaP [8]): 205 nM
